From patent US12624396B2, “Methods for alleviating facioscapulohumeral dystrophy (FSHD) by an antisense nucleic acid molecule inhibiting the expression of double homeobox 4 (DUX4)” (Fred Hutchinson Cancer Center, priority 2010, dated 2026) come the findings set out here.

“Also recorded” adds a separate entry of the source.

In test [1] the test system is DUX4-fl mRNA in FSHD muscle cells. Nature of the test: DUX4-fl mRNA in FSHD muscle cells treated with MAO inhibitors (RT-PCR). The format is cell-based, human. The source says:
The monamine oxidase inhibitor pargyline has been reported to inhibit the activity of the LSD1 histone demethylase that demethylates H3K9.
FIG. 22 graphically illustrates that pargyline decreases the amount of DUX4 mRNA in FSHD muscle cells.
Middle panel is a no RT control and bottom panel is a GAPDH loading control.

Test [2] concerns DUX4 mRNA in FSHD fibroblasts. Nature of the test: DUX4 mRNA in FSHD fibroblasts with beta-estradiol inducible MyoD, cycloheximide addition and washout. To be noted: MyoD induction, 38 hours in differentiation conditions, chx added, FIG. 24. The class given is cell-based, human. The source says: The 3-prime untranslated region (UTR) of the DUX4 mRNA has an unusual exon-intron structure. The translational stop codon is in the first exon, whereas the polyadenylation sequence is in the third exon. The separation of the translational stop codon from the polyadenylation site by two exon-intron junctions would be predicted to make this mRNA subject to translation dependent nonsense mediated decay.
FSHD fibroblasts expressing low amounts of DUX4 mRNA were stably transduced with a beta-estradiol inducible MyoD so that addition of beta-estradiol will convert them to skeletal muscle, which after 96 hours of induction increases the steady-state levels of the DUX4 mRNA and activates expression of the MyoD target Mgn (compare lanes 1 and 2). […] Washout of the chx results in the rapid loss of the DUX4 mRNA, disappearing between 2 and 8 hrs of washout. The loss of DUX4 mRNA is associated with its translation since the DUX4 target PRAME 1 is induced as the DUX4 mRNA disappears.

Regarding `C#CCN(C)Cc1ccccc1` [pargyline], the “abundance of DUX4-fl mRNA” value in test [1] (FSHD muscle cells expressing endogenous DUX4-fl mRNA, quantitative RT-PCR, FIG. 22) is listed as “suppresses the expression of DUX4 mRNA; also recorded: decreases the abundance of DUX4-fl mRNA in a dose-dependent manner”. For the same compound, the “amount of DUX4-fl mRNA” value in test [1] (cultured FSHD muscle cells differentiated 48 hours in differentiation medium with varying amounts of pargyline, RT-PCR, FIG. 23) is on record as “dose-dependent inhibition of DUX4 mRNA expression”. In the case of `C[C@@H]1C[C@@H]([C@H](O)CC2CC(=O)NC(=O)C2)C(=O)[C@@H](C)C1` [cycloheximide], the “DUX4 mRNA level” value in test [2] is “accumulation of the DUX4 mRNA; also recorded: significant increase in DUX4 mRNA”.
